Source: patent US11034672B1, “Tyrosine kinase inhibitor compositions, methods of making and methods of use” (Black Diamond Therapeutics, Inc., priority 2018, dated 2021)

Assays:
Type in all cases: cell-based
[1] = target: T1, HER2 YVMA (Homo sapiens, UniProt P04626, INS775YVMA); test: Activity for inhibiting HER2 (Table B), HER2 YVMA; details: read-out: HER2 YVMA, potency code (IC50)
T1 construct: expressed in transfected cells; host or cells: BaF3 (murine pro-B)
Experimental: (§1) EC50 values were determined with the same application.

[2] = target: T1, HER2 YVMA; test: BaF3 cell proliferation assay, HER2 YVMA (Table B); details: potency code, 3 days, CellTiterGlo, read-out: HER2 YVMA (Activity for Inhibiting HER2)
[3] = target: T2, HER2 WT (Homo sapiens, UniProt P04626); test: Activity for inhibiting HER2 (Table B), HER2 WT
T2 sequence (P04626 23-1255): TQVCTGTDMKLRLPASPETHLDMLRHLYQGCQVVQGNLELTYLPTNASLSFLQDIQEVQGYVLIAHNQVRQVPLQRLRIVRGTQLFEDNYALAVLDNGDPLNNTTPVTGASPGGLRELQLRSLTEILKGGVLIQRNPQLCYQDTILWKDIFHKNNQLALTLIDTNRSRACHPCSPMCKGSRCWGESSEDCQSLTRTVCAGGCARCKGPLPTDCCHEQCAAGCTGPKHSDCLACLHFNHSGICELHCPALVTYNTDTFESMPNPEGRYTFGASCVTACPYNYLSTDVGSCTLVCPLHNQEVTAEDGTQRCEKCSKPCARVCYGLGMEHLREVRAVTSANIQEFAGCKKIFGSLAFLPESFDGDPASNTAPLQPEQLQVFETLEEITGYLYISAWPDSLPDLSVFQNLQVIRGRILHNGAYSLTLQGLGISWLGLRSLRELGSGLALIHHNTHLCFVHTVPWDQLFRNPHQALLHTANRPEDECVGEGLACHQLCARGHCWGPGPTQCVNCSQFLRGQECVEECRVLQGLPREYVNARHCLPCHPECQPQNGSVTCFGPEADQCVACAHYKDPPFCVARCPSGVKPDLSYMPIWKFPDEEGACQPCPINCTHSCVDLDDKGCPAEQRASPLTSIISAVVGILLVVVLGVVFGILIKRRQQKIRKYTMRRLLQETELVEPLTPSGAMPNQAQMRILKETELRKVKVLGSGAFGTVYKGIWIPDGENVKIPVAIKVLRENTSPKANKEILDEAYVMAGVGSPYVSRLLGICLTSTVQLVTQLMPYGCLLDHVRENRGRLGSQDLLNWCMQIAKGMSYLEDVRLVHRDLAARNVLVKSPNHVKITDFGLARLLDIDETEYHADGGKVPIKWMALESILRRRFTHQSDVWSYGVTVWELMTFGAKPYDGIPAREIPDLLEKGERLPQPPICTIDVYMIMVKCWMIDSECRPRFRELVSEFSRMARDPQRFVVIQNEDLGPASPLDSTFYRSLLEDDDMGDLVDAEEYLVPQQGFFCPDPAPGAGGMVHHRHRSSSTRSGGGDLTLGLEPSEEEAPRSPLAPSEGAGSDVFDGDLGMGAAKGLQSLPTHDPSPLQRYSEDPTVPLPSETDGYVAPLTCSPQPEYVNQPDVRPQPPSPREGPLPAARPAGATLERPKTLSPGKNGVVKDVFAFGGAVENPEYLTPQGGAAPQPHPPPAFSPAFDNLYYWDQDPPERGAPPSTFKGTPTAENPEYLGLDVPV

[4] = target: T3, EGFR V3 (Homo sapiens, UniProt P00533, DELINS30-297G); test: Activity for inhibiting EGFR (Table A), EGFR V3 (EGFR-Viii); details: read-out: EGFR V3, potency code (IC50)
T3 construct: expressed in transfected cells; host or cells: BaF3 (murine pro-B), retroviral pMXs-IRES-Blasticidin
T3 sequence (P00533 with tags, fused parts or gaps DELINS30-297G): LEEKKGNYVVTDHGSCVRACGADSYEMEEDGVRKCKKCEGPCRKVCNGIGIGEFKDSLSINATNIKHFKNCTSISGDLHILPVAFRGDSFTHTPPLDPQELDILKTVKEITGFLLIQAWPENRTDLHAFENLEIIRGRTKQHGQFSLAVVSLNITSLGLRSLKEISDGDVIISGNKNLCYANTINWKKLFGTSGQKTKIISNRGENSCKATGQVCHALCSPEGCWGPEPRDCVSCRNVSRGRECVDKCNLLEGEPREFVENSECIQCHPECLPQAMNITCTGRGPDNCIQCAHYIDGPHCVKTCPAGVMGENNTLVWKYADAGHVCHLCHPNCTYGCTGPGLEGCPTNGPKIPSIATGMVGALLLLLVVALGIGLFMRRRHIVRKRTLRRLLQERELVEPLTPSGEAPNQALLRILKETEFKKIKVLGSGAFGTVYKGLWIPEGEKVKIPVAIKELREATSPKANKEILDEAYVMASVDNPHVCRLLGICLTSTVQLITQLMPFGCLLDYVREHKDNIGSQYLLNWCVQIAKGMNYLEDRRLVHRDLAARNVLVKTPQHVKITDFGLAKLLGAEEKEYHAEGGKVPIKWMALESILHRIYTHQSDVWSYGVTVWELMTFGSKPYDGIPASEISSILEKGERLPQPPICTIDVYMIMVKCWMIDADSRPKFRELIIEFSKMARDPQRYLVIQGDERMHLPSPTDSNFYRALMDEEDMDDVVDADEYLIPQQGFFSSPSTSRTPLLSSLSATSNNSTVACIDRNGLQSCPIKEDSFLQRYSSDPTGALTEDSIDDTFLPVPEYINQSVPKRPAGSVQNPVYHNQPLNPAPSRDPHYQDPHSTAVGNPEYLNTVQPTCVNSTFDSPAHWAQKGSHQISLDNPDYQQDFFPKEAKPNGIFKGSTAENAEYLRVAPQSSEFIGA

[5] = target: T4, EGFR WT (Homo sapiens, UniProt P00533); test: BaF3 cell proliferation assay, EGFR WT (Table A); details: potency code, 3 days, CellTiterGlo, read-out: EGFR WT (Activity for Inhibiting EGFR)
T4 sequence (P00533 25-1210 N540K): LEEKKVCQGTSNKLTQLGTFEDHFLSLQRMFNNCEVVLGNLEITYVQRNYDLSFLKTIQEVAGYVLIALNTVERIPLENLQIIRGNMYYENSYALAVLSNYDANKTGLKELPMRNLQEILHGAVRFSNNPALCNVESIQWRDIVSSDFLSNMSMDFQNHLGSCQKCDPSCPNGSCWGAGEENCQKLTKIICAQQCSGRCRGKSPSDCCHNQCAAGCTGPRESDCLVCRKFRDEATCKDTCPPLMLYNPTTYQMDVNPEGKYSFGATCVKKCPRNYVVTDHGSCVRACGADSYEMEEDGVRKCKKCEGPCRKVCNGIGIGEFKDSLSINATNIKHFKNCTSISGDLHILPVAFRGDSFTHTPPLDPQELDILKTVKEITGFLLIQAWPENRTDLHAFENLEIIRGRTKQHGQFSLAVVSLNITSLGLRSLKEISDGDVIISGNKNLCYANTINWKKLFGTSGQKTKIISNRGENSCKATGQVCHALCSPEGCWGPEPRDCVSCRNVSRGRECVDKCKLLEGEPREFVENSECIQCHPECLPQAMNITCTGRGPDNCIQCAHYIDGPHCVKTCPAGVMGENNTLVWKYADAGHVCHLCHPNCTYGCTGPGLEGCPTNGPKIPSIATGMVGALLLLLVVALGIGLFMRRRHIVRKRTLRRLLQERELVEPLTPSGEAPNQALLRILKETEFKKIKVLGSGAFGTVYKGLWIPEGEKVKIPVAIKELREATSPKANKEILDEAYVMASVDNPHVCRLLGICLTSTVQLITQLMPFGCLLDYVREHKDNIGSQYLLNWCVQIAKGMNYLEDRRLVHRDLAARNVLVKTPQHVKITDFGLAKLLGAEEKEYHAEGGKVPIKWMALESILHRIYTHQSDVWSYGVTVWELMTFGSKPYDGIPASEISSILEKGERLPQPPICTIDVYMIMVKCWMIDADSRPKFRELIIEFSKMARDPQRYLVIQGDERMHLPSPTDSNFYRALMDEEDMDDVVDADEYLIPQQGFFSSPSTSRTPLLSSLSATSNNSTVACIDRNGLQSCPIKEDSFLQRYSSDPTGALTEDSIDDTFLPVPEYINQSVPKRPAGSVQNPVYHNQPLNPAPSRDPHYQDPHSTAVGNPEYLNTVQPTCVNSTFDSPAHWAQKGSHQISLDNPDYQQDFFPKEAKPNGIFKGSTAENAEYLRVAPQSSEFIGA
Procedure, shortened: (§2)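 Steps: HEK 293T transfected with pMXs-IRES-Blasticidin kinase vector plus Gag-Pol and VSV-G; virus harvested at 24 and 48 hrs; BaF3 infected twice by centrifugation, Blasticidin-selected, then grown without IL-3. Proliferation EC50 measured.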

[6] = target: T3, EGFR V3; test: BaF3 cell proliferation assay, EGFR V3 (Table A); details: potency code, 3 days, CellTiterGlo, read-out: EGFR V3 (Activity for Inhibiting EGFR)
Procedure, shortened: as §2

[7] = target: T5, EGFR SVD (Homo sapiens, UniProt P00533, DUP768-770); test: BaF3 cell proliferation assay, EGFR SVD (Table A); details: potency code, 3 days, CellTiterGlo, read-out: EGFR SVD (Activity for Inhibiting EGFR)
T5 construct: expressed in transfected cells; host or cells: BaF3 (murine pro-B), retroviral pMXs-IRES-Blasticidin
Experimental: (§3) Retroviral Production: EGFR mutants were subcloned into pMXs-IRES-Blasticidin (RTV-016, Cell Biolabs, San Diego, Calif.). Retroviral expression vector retrovirus was produced by transient transfection of HEK 293T cells with the retroviral EGFR mutant expression vector pMXs-IRES-Blasticidin (RTV-016, Cell Biolabs), pCMV-Gag-Pol vector and pCMV-VSV-G-Envelope vector. Briefly, HEK 293T/17 cells were plated in 100 mm collagen coated plate (354450, Corning Life Sciences, Tewksbury, Mass.) (4×10^5 per plate) and incubated overnight. The next day, retroviral plasmids (3 μg of EGFR mutant, 1.0 μg of pCMV-Gag-Pol and 0.5 μg pCMV-VSV-G) were mixed in 500 μl of Optimem (31985, Life Technologies). The mixture was incubated at room temperature for 5 min and then added to Optimem containing transfection reagent Lipofectamine (11668, Invitrogen) and incubated for 20 minutes. Mixture was then added dropwise to HEK 293T cells. The next day the medium was replaced with fresh culture medium and retrovirus was harvested @ 24 and 48 hrs.
(§4) Generation of EGFR mutant stable cell lines: BaF3 cells (1.5E5 cells) were infected with 1 ml of viral supernatant supplemented with 8 μg/ml polybrene by centrifuging for 30 min at 1000 rpm. Cells were placed in a 37° C. incubator overnight. Cells were then spun for 5 minutes to pellet the cells. Supernatant was removed and cells re-infected a fresh 1 ml of viral supernatant supplemented with 8 μg/ml polybrene by centrifuging for 30 min at 1000 rpm. Cells were placed in 37° C. incubator overnight. […] After 48 hours cells were selected for retroviral infection in 10 μg/ml Blasticidin for one week. Blasticidin resistant populations were washed twice in phosphate buffered saline before plating in media lacking IL-3 to select for IL-3 independent growth.
as §1

[8] = target: T5, EGFR SVD; test: Activity for inhibiting EGFR (Table A), EGFR SVD; details: read-out: EGFR SVD, potency code (IC50)
[9] = target: T2, HER2 WT; test: BaF3 cell proliferation assay, HER2 WT (Table B); details: potency code, 3 days, CellTiterGlo, read-out: HER2 WT (Activity for Inhibiting HER2)
[10] = target: T6, HER2 S310F (Homo sapiens, UniProt P04626, S310F); test: Activity for inhibiting HER2 (Table B), HER2 S310F; details: read-out: HER2 S310F, potency code (IC50)
T6 construct: expressed in transfected cells; host or cells: BaF3 (murine pro-B)
Experimental: as §1

[11] = target: T7, EGFR NPH (Homo sapiens, UniProt P00533, DUP771-773); test: Activity for inhibiting EGFR (Table A), EGFR NPH; details: read-out: EGFR NPH, potency code (IC50)
T7 construct: expressed in transfected cells; host or cells: BaF3 (murine pro-B), retroviral pMXs-IRES-Blasticidin
T7 sequence (P00533 with tags, fused parts or gaps DUP771-773): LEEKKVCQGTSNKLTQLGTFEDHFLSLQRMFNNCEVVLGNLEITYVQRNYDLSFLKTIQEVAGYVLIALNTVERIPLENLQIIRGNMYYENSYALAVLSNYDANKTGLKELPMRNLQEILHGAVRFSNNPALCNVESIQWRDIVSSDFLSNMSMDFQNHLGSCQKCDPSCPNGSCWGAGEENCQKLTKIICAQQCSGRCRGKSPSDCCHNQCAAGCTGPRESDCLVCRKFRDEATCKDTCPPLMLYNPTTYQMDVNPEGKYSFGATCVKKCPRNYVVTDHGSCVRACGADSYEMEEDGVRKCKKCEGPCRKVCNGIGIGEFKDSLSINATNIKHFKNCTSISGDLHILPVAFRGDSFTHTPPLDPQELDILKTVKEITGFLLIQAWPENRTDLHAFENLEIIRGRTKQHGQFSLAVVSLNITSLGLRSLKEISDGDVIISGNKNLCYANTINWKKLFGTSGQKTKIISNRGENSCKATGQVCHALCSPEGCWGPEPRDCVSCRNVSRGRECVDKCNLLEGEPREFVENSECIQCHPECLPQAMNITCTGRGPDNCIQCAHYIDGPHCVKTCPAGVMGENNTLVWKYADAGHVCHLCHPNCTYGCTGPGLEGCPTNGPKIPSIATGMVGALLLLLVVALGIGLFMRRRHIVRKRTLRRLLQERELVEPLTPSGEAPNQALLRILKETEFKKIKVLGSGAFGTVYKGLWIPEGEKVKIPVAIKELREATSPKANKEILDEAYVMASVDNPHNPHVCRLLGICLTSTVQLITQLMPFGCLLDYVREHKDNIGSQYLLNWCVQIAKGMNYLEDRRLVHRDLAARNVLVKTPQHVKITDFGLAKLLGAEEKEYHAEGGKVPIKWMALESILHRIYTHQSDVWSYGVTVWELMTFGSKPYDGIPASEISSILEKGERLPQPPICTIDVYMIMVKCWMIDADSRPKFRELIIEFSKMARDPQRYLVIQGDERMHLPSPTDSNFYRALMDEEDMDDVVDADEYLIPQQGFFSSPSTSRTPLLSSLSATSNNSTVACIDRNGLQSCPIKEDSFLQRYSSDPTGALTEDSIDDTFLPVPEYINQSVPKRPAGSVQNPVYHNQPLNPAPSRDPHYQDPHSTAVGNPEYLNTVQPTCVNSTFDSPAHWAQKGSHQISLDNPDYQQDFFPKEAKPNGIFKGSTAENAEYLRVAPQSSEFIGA

[12] = target: T6, HER2 S310F; test: BaF3 cell proliferation assay, HER2 S310F (Table B); details: potency code, 3 days, CellTiterGlo, read-out: HER2 S310F (Activity for Inhibiting HER2)
[13] = target: T7, EGFR NPH; test: BaF3 cell proliferation assay, EGFR NPH (Table A); details: potency code, 3 days, CellTiterGlo, read-out: EGFR NPH (Activity for Inhibiting EGFR)
Experimental: as §3, §4, §1

[14] = target: T4, EGFR WT; test: Activity for inhibiting EGFR (Table A), EGFR WT; details: read-out: EGFR WT, potency code (IC50)
[15] = Table B, read-out: HER2 WT, potency code (IC50)
[16] = text lists of compounds, read-out: IC50 value for inhibiting wild-type HER2

Row | Structure (SMILES) | IC50 [1] [nM] | IC50 [2] [nM] | IC50 [3, 15] [nM] | IC50 [3, 16] [nM] | IC50 [4] [nM] | IC50 [5] [nM] | IC50 [6] [nM] | IC50 [7] [nM] | IC50 [8] [nM] | IC50 [9] [nM] | IC50 [10] [nM] | IC50 [11] [nM] | IC50 [12] [nM] | IC50 [13] [nM] | IC50 [14] [nM]
1 | C=CC(=O)Nc1cc2c(Nc3ccc(OCc4ccccn4)c(Cl)c3)ncnc2cc1OCCN1C2CCC1COC2 [compound 31] | 100 to 200 | 100 to 200 | 5 to 10 | ≤ 10 | 30 to 50 | 500 to 1000 | 30 to 50 | 50 to 100 | 50 to 100 | 5 to 10 | 30 to 50 | 50 to 100 | 30 to 50 | 50 to 100 | 500 to 1000
2 | C=CC(=O)Nc1cc2c(Nc3ccc(OCc4ccccn4)c(Cl)c3)ncnc2cc1OCCN1CC2COCC2C1 (stereo not drawn) [compound 51] | 50 to 100 | 50 to 100 | 5 to 10 | ≤ 10 | 20 to 30 | 500 to 1000 | 20 to 30 | 30 to 50 | 30 to 50 | 5 to 10 | 10 to 20 | 50 to 100 | 10 to 20 | 50 to 100 | 500 to 1000
3 | C=CC(=O)Nc1cc2c(Nc3ccc(OCc4ccccn4)c(Cl)c3)ncnc2cc1OCCN1CC2CC1CO2 (stereo not drawn) [compound 39] | 50 to 100 | 50 to 100 | 5 to 10 | ≤ 10 | 20 to 30 | 500 to 1000 | 20 to 30 | 30 to 50 | 30 to 50 | 5 to 10 | 10 to 20 | 50 to 100 | 10 to 20 | 50 to 100 | 500 to 1000
4 | C=CC(=O)Nc1cc2c(Nc3ccc(OCc4ccccn4)c(Cl)c3)ncnc2cc1OCCN1CCC1 [compound 33] | 100 to 200 | 100 to 200 | 5 to 10 | ≤ 10 | 20 to 30 | 300 to 500 | 20 to 30 | 50 to 100 | 50 to 100 | 5 to 10 | 10 to 20 | 50 to 100 | 10 to 20 | 50 to 100 | 300 to 500
5 | C=CC(=O)Nc1cc2c(Nc3ccc(OCc4ccccn4)c(Cl)c3)ncnc2cc1N1CC2CN(C)CC2C1 (stereo not drawn) [compound 47] | 500 to 1000 | 500 to 1000 | 10 to 20 | ≤ 20 | 30 to 50 | 300 to 500 | 30 to 50 | 500 to 1000 | 500 to 1000 | 10 to 20 | 30 to 50 | 500 to 1000 | 30 to 50 | 500 to 1000 | 300 to 500
6 | C=CC(=O)Nc1cc2c(Nc3ccc(OCc4ccccn4)c(Cl)c3)ncnc2cc1OCC1(N(C)C)CC1 [compound 54] | 100 to 200 | 100 to 200 | 5 to 10 | ≤ 10 | 10 to 20 | > 1000 | 10 to 20 | 50 to 100 | 50 to 100 | 5 to 10 | 20 to 30 | 100 to 200 | 20 to 30 | 100 to 200 | > 1000
7 | C=CC(=O)Nc1cc2c(Nc3ccc(OCc4ccccn4)c(Cl)c3)ncnc2cc1OCCN1CC2(CCO2)C1 [compound 52] | 100 to 200 | 100 to 200 | 5 to 10 | ≤ 10 | 20 to 30 | 500 to 1000 | 20 to 30 | 50 to 100 | 50 to 100 | 5 to 10 | 20 to 30 | 50 to 100 | 20 to 30 | 50 to 100 | 500 to 1000
8 | C=CC(=O)Nc1cc2c(Nc3ccc(OCc4ccccn4)cc3F)ncnc2cc1OCCN1CCOCC1 [compound 56] | 200 to 300 | 200 to 300 | 20 to 30 | ≤ 50 | 20 to 30 | 300 to 500 | 20 to 30 | 300 to 500 | 300 to 500 | 20 to 30 | 50 to 100 | 300 to 500 | 50 to 100 | 300 to 500 | 300 to 500

Next, values leading:

Row | IC50 [1] [nM] | IC50 [2] [nM] | IC50 [3, 15] [nM] | IC50 [3, 16] [nM] | IC50 [4] [nM] | IC50 [5] [nM] | IC50 [6] [nM] | IC50 [7] [nM] | IC50 [8] [nM] | IC50 [9] [nM] | IC50 [10] [nM] | IC50 [11] [nM] | IC50 [12] [nM] | IC50 [13] [nM] | IC50 [14] [nM] | Structure (SMILES)
9 | 50 to 100 | 50 to 100 | 10 to 20 | ≤ 20 | 200 to 300 | 500 to 1000 | 200 to 300 | 30 to 50 | 30 to 50 | 10 to 20 | 10 to 20 | 20 to 30 | 10 to 20 | 20 to 30 | 500 to 1000 | C=CC(=O)Nc1cc2c(Nc3ccc(OCc4ccccn4)c(Cl)c3)ncnc2cc1OC1CN(C)C1 [compound 25]
10 | 30 to 50 | 30 to 50 | 5 to 10 | ≤ 10 | 10 to 20 | 200 to 300 | 10 to 20 | 30 to 50 | 30 to 50 | 5 to 10 | 10 to 20 | 50 to 100 | 10 to 20 | 50 to 100 | 200 to 300 | C=CC(=O)Nc1cc2c(Nc3ccc(OCc4ccccn4)c(Cl)c3)ncnc2cc1OCCN1CCCC1 [compound 28]
11 | 50 to 100 | 50 to 100 | 5 to 10 | ≤ 10 | 30 to 50 | 500 to 1000 | 30 to 50 | 30 to 50 | 30 to 50 | 5 to 10 | 20 to 30 | 50 to 100 | 20 to 30 | 50 to 100 | 500 to 1000 | C=CC(=O)Nc1cc2c(Nc3ccc(OCc4ccccn4)c(Cl)c3)ncnc2cc1OCCN(C)C1CCOC1 (stereo not drawn) [compound 41]
12 | 20 to 30 | 20 to 30 | < 5 | ≤ 10 | 10 to 20 | 200 to 300 | 10 to 20 | 10 to 20 | 10 to 20 | < 5 | 10 to 20 | 10 to 20 | 10 to 20 | 10 to 20 | 200 to 300 | C=CC(=O)Nc1cc2c(Nc3ccc(OCc4ccccn4)c(Cl)c3)ncnc2cc1OCCN1CCN(C)CC1 [compound 40]
13 | 30 to 50 | 30 to 50 | < 5 | ≤ 5 | 10 to 20 | 200 to 300 | 10 to 20 | 10 to 20 | 10 to 20 | < 5 | 5 to 10 | 20 to 30 | 5 to 10 | 20 to 30 | 200 to 300 | C=CC(=O)Nc1cc2c(Nc3ccc(OCc4ccccn4)c(Cl)c3)ncnc2cc1O[C@@H]1CCN(C)C1 [compound 17]
